Columns and labels:
Assay type in all cases: physicochemical
[1] = Experimental Example 1: comparison of hygroscopicity by weight gain over time (44 to 45% RH); settings: 22 to 24° C.
Experimental: L-Ala-OEt HCl salt and L-Ala-OEt MsOH salt were measured into in a glass container in an amount of 1.6 g each, dried in vacuo at 30° C. for 5 hours, left under conditions of temperature: 22 to 24° C., humidity: 44 to 45% RH, and then the hygroscopicity was compared based on the weight gain over the lapse of time. […] The liquefied portion increased with the lapse of time, and the entire salt became liquid 750 minutes later with no observable crystal.

[2] = Experimental Example 4: comparison of hygroscopicity by weight gain over time (40 to 46% RH); settings: 24° C.
Experimental: The L-Ala-OEt HCl salt, L-Ala-OEt MsOH salt, L-Ala-OEt BsOH salt, L-Ala-OEt 4-CBS salt, L-Ala-OEt 4-EBS salt, L-Ala-OEt 2,4-DMBS salt, and L-Ala-OEt 2,5-DMBS salt were measured in an amount of about 0.3 g each, left standing in a thermostatic chamber at a temperature of 24° C. and a humidity of 40 to 46% RH, and the hygroscopicity was compared based on the weight gain with the lapse of time. A part of the crystal of the L-Ala-OEt HCl salt was liquefied in 30 minutes, and the liquefied portion increased thereafter with the lapse of time. After 100 minutes, the whole mass became like a sherbet.

[3] = Experimental Example 2: comparison of hygroscopicity by weight gain over time (62 to 64% RH); settings: 24° C.
Experimental: In the same manner as in Experimental Example 1, L-Ala-OEt MsOH salt and L-Ala-OMe HCl salt were measured into a glass container in an amount of 0.6 g each, left under conditions of temperature: 24° C., humidity: 62 to 64% RH, and then the hygroscopicity was compared based on the weight gain with the lapse of time.

[4] = Experimental Example 7: evaluation of hygroscopicity by weight gain over time (60 to 66% RH); settings: 24 EC
Experimental: The L-Ala-OMe HCl salt, L-Ala-OMe 4-EBS salt, L-Ala-OMe 2,4-DMBS salt, and L-Ala-OMe 2,5-DMBS salt were measured in an amount of about 0.3 g each, left standing in a thermostatic chamber at temperature of 24 EC and a humidity of 60 to 66% RH, and the hygroscopicity was compared based on the weight gain with the lapse of time. A part of the crystal of the L-Ala-OMe HCl salt was liquefied in 10 minutes, and the entirety became a sherbet in 20 minute. The liquefied portion increased thereafter with the lapse of time. After 80 minutes, the whole was liquefied.

[5] = Experimental Example 5: comparison of hygroscopicity by weight gain over time (60 to 66% RH); settings: 24 EC
Experimental: The L-Ala-OMe HCl salt, L-Ala-OEt MsOH salt, L-Ala-OEt BsOH salt, L-Ala-OEt 4-CBS salt, L-Ala-OEt 4-EBS salt, L-Ala-OEt 2,4-DMBS salt, and L-Ala-OEt 2,5-DMBS salt were measured in an amount of about 0.3 g each, left standing in a thermostatic chamber at a temperature of 24 EC and a humidity of 60 to 66% RH, and the hygroscopicity was compared based on the weight gain with the lapse of time.

## CCOC(=O)[C@H](C)N.Cl [L-Ala-OEt HCl salt, alanine ethyl ester hydrochloride]
[1]
  time to liquefaction of a part of the crystals: 60 min
  time until the entire salt became liquid: 750 min
[1]; 0 minutes
  weight increase rate (% relative to initial weight): 0.00%
[1]; 1 minutes
  weight increase rate (% relative to initial weight): 1.63%
[1]; 2 minutes
  weight increase rate (% relative to initial weight): 1.67%
[1]; 3 minutes
  weight increase rate (% relative to initial weight): 1.72%
[1]; 4 minutes
  weight increase rate (% relative to initial weight): 1.73%
[1]; 6 minutes
  weight increase rate (% relative to initial weight): 1.80%
[1]; 10 minutes
  weight increase rate (% relative to initial weight): 1.95%
[1]; 15 minutes
  weight increase rate (% relative to initial weight): 2.07%
[1]; 25 minutes
  weight increase rate (% relative to initial weight): 2.29%
[1]; 35 minutes
  weight increase rate (% relative to initial weight): 2.55%
[1]; 50 minutes
  weight increase rate (% relative to initial weight): 2.88%
[1]; 60 minutes
  state of the crystals: (partly liquefied)
  weight increase rate (% relative to initial weight): 3.09%
[1]; 75 minutes
  weight increase rate (% relative to initial weight): 3.38%
[1]; 90 minutes
  weight increase rate (% relative to initial weight): 3.63%
[1]; 120 minutes
  weight increase rate (% relative to initial weight): 4.10%
[1]; 150 minutes
  weight increase rate (% relative to initial weight): 4.41%
[1]; 180 minutes
  weight increase rate (% relative to initial weight): 4.89%
[1]; 750 minutes
  state of the crystals: (whole liquid)
  weight increase rate (% relative to initial weight): 14.37%
[2]
  time until a part of the crystal was liquefied: 30 min
  time until the whole mass became like a sherbet: 100 min
[2]; 0 minutes
  weight increase rate (%): 0.00%
[2]; 15 minutes
  weight increase rate (%): 2.63%
[2]; 30 minutes
  weight increase rate (%): 4.56%
[2]; 45 minutes
  weight increase rate (%): 6.42%
[2]; 60 minutes
  weight increase rate (%): 7.76%
[2]; 75 minutes
  weight increase rate (%): 8.82%
[2]; 90 minutes
  weight increase rate (%): 9.53%
[2]; 120 minutes
  weight increase rate (%): 9.89%
[2]; 150 minutes
  weight increase rate (%): 10.39%
[2]; 180 minutes
  weight increase rate (%): 10.69%

## COC(=O)[C@H](C)N.Cl [L-Ala-OMe HCl salt, alanine methyl ester hydrochloride, reference compound]
[3]
  time to liquefaction of a part of the crystals: 20 min
  time until the entire salt became liquid: 155 min
[3]; 0 minutes
  weight increase rate (% relative to initial weight): 0.00%
[3]; 10 minutes
  weight increase rate (% relative to initial weight): 0.11%
[3]; 20 minutes
  state of the crystals: (partly liquefied)
  weight increase rate (% relative to initial weight): 0.54%
[3]; 35 minutes
  weight increase rate (% relative to initial weight): 1.04%
[3]; 50 minutes
  weight increase rate (% relative to initial weight): 1.67%
[3]; 65 minutes
  state of the crystals: (whole sherbet)
  weight increase rate (% relative to initial weight): 2.27%
[3]; 80 minutes
  weight increase rate (% relative to initial weight): 2.83%
[3]; 95 minutes
  weight increase rate (% relative to initial weight): 3.36%
[3]; 110 minutes
  weight increase rate (% relative to initial weight): 3.97%
[3]; 125 minutes
  weight increase rate (% relative to initial weight): 4.54%
[3]; 140 minutes
  weight increase rate (% relative to initial weight): 5.13%
[3]; 155 minutes
  state of the crystals: (whole liquid)
  weight increase rate (% relative to initial weight): 5.48%
[3]; 170 minutes
  weight increase rate (% relative to initial weight): 6.02%
[3]; 185 minutes
  weight increase rate (% relative to initial weight): 6.56%
[3]; 200 minutes
  weight increase rate (% relative to initial weight): 7.03%
[4]
  time until a part of the crystal was liquefied: 10 min
  time until the entirety became a sherbet: 20 min
  time until the whole was liquefied: 80 min
[4]; 0 min
  weight increase rate (%): 0.00%
[4]; 10 min
  state of the crystals: (partly liquefied)
  weight increase rate (%): 6.74%
[4]; 20 min
  state of the crystals: (sherbet state)
  weight increase rate (%): 10.06%
[4]; 35 min
  weight increase rate (%): 12.52%
[4]; 50 min
  weight increase rate (%): 14.31%
[4]; 65 min
  weight increase rate (%): 15.69%
[4]; 80 min
  state of the crystals: (entirely liquefied)
  weight increase rate (%): 17.16%
[4]; 95 min
  weight increase rate (%): 18.31%
[4]; 110 min
  weight increase rate (%): 19.42%
[4]; 125 min
  weight increase rate (%): 20.54%
[4]; 140 min
  weight increase rate (%): 21.66%
[4]; 155 min
  weight increase rate (%): 22.62%
[4]; 170 min
  weight increase rate (%): 23.55%
[4]; 185 min
  weight increase rate (%): 24.41%
[4]; 200 min
  weight increase rate (%): 25.14%
[5]
  time until a part of the crystal was liquefied: 35 min
  time until the whole mass was like a sherbet: 125 min
[5]; 0 minutes
  weight increase rate (%): 0.00%
[5]; 10 minutes
  weight increase rate (%): 3.03%
[5]; 20 minutes
  weight increase rate (%): 4.85%
[5]; 35 minutes
  weight increase rate (%): 7.30%
[5]; 50 minutes
  weight increase rate (%): 8.84%
[5]; 65 minutes
  weight increase rate (%): 10.42%
[5]; 80 minutes
  weight increase rate (%): 11.65%
[5]; 95 minutes
  weight increase rate (%): 12.77%
[5]; 110 minutes
  weight increase rate (%): 13.69%
[5]; 125 minutes
  weight increase rate (%): 14.74%
[5]; 140 minutes
  weight increase rate (%): 15.46%
[5]; 155 minutes
  weight increase rate (%): 16.23%
[5]; 170 minutes
  weight increase rate (%): 16.88%
[5]; 185 minutes
  weight increase rate (%): 17.43%
[5]; 200 minutes
  weight increase rate (%): 17.77%
